EP4635500A1, “THERAPEUTIC AGENT FOR BACTERIAL INFECTION” (Sumitomo Pharma Co., Ltd., priority 2022, dated 2024)
Where two headings read alike, the source gives them in different places.

Legend:
Format in all cases: cell-based
Escherichia coli = experiment: MIC, broth microdilution, standard strains and Japanese clinical isolates (Example 5, Table 4); details: ATCCBAA2452; KUB4005 Escherichia coli ATCC BAA-2452, NDM-1
CRE and CPE strains = experiment: MIC, broth microdilution, standard strains and Japanese clinical isolates (Example 5, Table 4 continued; organism of each KUB strain not given)
Providencia rettgeri = experiment: MIC, broth microdilution, standard strains and Japanese clinical isolates (Example 5, Table 4); details: ATCCBAA2525; KUB4010 Providencia rettgeri ATCC BAA-2525, OXA-181
53 CRE and CPE strains = experiment: MICrange, MIC50, MIC80, MIC90 for 53 bacterial isolates (Example 5, Table 5); details: for MIC80: read-out: MIC80
Enterobacterales = experiment: MIC, broth microdilution, CDC/FDA Antibiotic Resistance Isolate Bank (Example 7, Tables 8, 11, 12); details: for MIC: read-out: MIC; for MIC50: read-out: MIC50; for MIC90: read-out: MIC90
Klebsiella pneumoniae = experiment: MIC, broth microdilution, standard strains and Japanese clinical isolates (Example 5, Table 4); details: IMP-6
[1] = system: Metallo-β-lactamase producing strains (N = 27); experiment: MIC50/MIC90 for carbapenemase-producing isolates (Example 5, Table 6); details: metallo-β-lactamase-producing strains; combination: Compound A at a fixed concentration of 4 µg/mL; read-out: MIC90
[2] = Enterobacter cloacae, KUB No. 5778, AR Bank # 432
[3] = Escherichia coli, KUB No. 5764, AR Bank # 368
[4] = Escherichia coli, KUB No. 5767, AR Bank # 371
[5] = Escherichia coli, KUB No. 5769, AR Bank # 373
[6] = Escherichia coli, KUB No. 5770, AR Bank # 374
[7] = Escherichia coli, KUB No. 5774, AR Bank # 378
[8] = Escherichia coli, KUB No. 5779, AR Bank # 433
[9] = Escherichia, KUB No. 57, AR Bank # 436 (row cut off)
[10] = Klebsiella aerogenes, Enterobacter aerogenes, KUB No. 5777, AR Bank # 431
[11] = Klebsiella oxytoca, KUB No. 5771, AR Bank # 375
[12] = Proteus mirabilis, KUB No. 5773, AR Bank # 377
[13] = Proteus mirabilis, KUB No. 5775, AR Bank # 379
[14] = 154 strains of Enterobacterales
[15] = carbapenemase-producing Enterobacterales, Metallo-β-lactamase (N = 47)
[16] = carbapenemase-producing Enterobacterales, Serine carbapenemase (N=61)

C[C@H]1[C@H](NC(=O)/C(=N\OC(C)(C)C(=O)O)c2csc(N)n2)C(=O)N1S(=O)(=O)O [Aztreonam, aztreonam]
0.5 µg/mL: MIC (Enterobacterales; Escherichia coli, KUB No. 5581, AR Bank # 84) | MIC (Enterobacterales; Escherichia coli, KUB No. 5646, AR Bank # 149)
≤ 0.03 µg/mL: MIC (CRE and CPE strains; strain KUB3165, carbapenemase gene IMP-34) | MIC (Enterobacterales; Proteus mirabilis, KUB No. 5653, AR Bank # 156) | MIC (Enterobacterales; Proteus mirabilis, KUB No. 5656, AR Bank # 159) | MIC (Enterobacterales; Providencia rettgeri, KUB No. 5579, AR Bank # 82)
0.06 µg/mL: MIC (CRE and CPE strains; strain KUB3628, carbapenemase gene IMP-1) | MIC (Enterobacterales; Escherichia coli, KUB No. 5574, AR Bank # 77) | MIC (Enterobacterales; [3]) | MIC (Enterobacterales; Klebsiella pneumoniae, KUB No. 5531, AR Bank# 34)
1 µg/mL: MIC (Providencia rettgeri) | MIC (Enterobacterales; Enterobacter cloacae, Enterobacter cloacae KUB No. 5807, AR Bank #501) | MIC (Enterobacterales; Escherichia coli, Escherichia coli KUB No. 5803, AR Bank #861)
16 µg/mL: MIC (CRE and CPE strains; strain KUB3164, carbapenemase gene IMP-6) | MIC (Enterobacterales; Escherichia coli, KUB No. 5582, AR Bank # 85) | MIC (Enterobacterales; Escherichia coli, KUB No. 5586, AR Bank # 89) | MIC (Enterobacterales; [4]) | MIC (Enterobacterales; [5]) | MIC (Enterobacterales; [6]) | MIC (Enterobacterales; Klebsiella aerogenes, Enterobacter aerogenes, KUB No. 5559, AR Bank # 62) | MIC (Enterobacterales; [10]) | MIC (Enterobacterales; Serratia marcescens, KUB No. 5618, AR Bank # 121) | MIC (Enterobacterales; Serratia marcescens, KUB No. 5619, AR Bank # 122) | MIC (Enterobacterales; Serratia marcescens, KUB No. 5620, AR Bank # 123) | MIC (Enterobacterales; Serratia marcescens, KUB No. 5627, AR Bank # 130) | MIC (Enterobacterales; Serratia marcescens, KUB No. 5628, AR Bank # 131) | MIC (Klebsiella pneumoniae; KUB3634 Klebsiella pneumoniae Clinical isolate)
8 µg/mL: MIC (CRE and CPE strains; strain KUB3149, carbapenemase gene NDM-1, read-out: MIC) | MIC (CRE and CPE strains; strain KUB3150, carbapenemase gene OXA-48, read-out: MIC) | MIC (Enterobacterales; Escherichia coli, KUB No. 5555, AR Bank# 58) | MIC (Enterobacterales; Escherichia coli, KUB No. 5578, AR Bank # 81) | MIC (Enterobacterales; Raoultella ornithinolvtica, KUB No. 5631, AR Bank # 134) | MIC (Enterobacterales; Serratia marcescens, KUB No. 5621, AR Bank # 124) | MIC (Klebsiella pneumoniae; KUB3633 Klebsiella pneumoniae Clinical isolate)
> 64 µg/mL: MIC80 (53 CRE and CPE strains; 53 bacterial isolates) | MIC90 (53 CRE and CPE strains; 53 bacterial isolates, read-out: MIC90)
0.12 µg/mL: MIC (CRE and CPE strains; strain KUB3158, carbapenemase gene OXA-48) | MIC (CRE and CPE strains; strain KUB3163, carbapenemase gene IMP-1) | MIC (Enterobacterales; Escherichia coli, Escherichia coli KUB No. 5796, AR Bank #452) | MIC (Enterobacterales; [7]) | MIC (Enterobacterales; Klebsiella aerogenes, Enterobacter aerogenes, KUB No. 5571, AR Bank # 74) | MIC (Enterobacterales; Klebsiella pneumoniae, KUB No. 5657, AR Bank # 160)
0.25 µg/mL: MIC (CRE and CPE strains; strain KUB3151, carbapenemase gene IMP-1, read-out: MIC) | MIC (Enterobacterales; Klebsiella pneumoniae, KUB No. 5573, AR Bank # 76) | MIC (Enterobacterales; Proteus mirabilis, KUB No. 5556, AR Bank# 59) | MIC (Enterobacterales; [13])
32 µg/mL: MIC (Enterobacterales; Enterobacter cloacae, KUB No. 5529, AR Bank# 32) | MIC (Enterobacterales; Enterobacter cloacae, KUB No. 5557, AR Bank# 60) | MIC (Enterobacterales; [2]) | MIC (Enterobacterales; Escherichia coli, KUB No. 5552, AR Bank# 55) | MIC (Enterobacterales; Escherichia coli, KUB No. 5615, AR Bank # 118) | MIC (Enterobacterales; Escherichia coli, KUB No. 5647, AR Bank # 150) | MIC (Enterobacterales; Escherichia coli, KUB No. 5648, AR Bank # 151) | MIC (Enterobacterales; [8]) | MIC (Enterobacterales; [9]) | MIC (Enterobacterales; Klebsiella aerogenes, Enterobacter aerogenes, KUB No. 5658, AR Bank # 161) | MIC (Enterobacterales; [11]) | MIC (Enterobacterales; Klebsiella pneumoniae, KUB No. 5623, AR Bank # 126) | MIC (Enterobacterales; Klebsiella pneumoniae, Klebsiella pneumoniae KUB No. 5809, AR Bank #504) | MIC (Enterobacterales; Morganella morganii, Morganella morganii KUB No. 5824, AR Bank #519) | MIC (Enterobacterales; Serratia marcescens, KUB No. 5588, AR Bank # 91)
2 µg/mL: MIC (Enterobacterales; Enterobacter cloacae, Enterobacter cloacae group, KUB No. 5629, AR Bank # 132) | MIC (Enterobacterales; Serratia marcescens, Serratia marcescens KUB No. 5825, AR Bank #520)
4 µg/mL: MIC (Escherichia coli) | MIC (CRE and CPE strains; strain KUB3166, carbapenemase gene IMP-1) | MIC (Enterobacterales; Enterobacter cloacae, KUB No. 5570, AR Bank # 73) | MIC (Enterobacterales; Escherichia coli, KUB No. 5564, AR Bank # 67) | MIC (Enterobacterales; Escherichia coli, KUB No. 5566, AR Bank # 69) | MIC (Enterobacterales; Escherichia coli, KUB No. 5583, AR Bank # 86) | MIC (Enterobacterales; Klebsiella oxytoca, KUB No. 5644, AR Bank # 147) | MIC (Enterobacterales; Proteus mirabilis, KUB No. 5652, AR Bank # 155) | MIC (Enterobacterales; [12])

CN(C)c1cc(NC(=O)CNC(C)(C)C)c(O)c2c1C[C@H]1C[C@H]3[C@H](N(C)C)C(O)=C(C(N)=O)C(=O)[C@@]3(O)C(O)=C1C2=O [Tigecycline, tigecycline]
0.25 µg/mL: MIC (Enterobacterales; [3]) | MIC (Enterobacterales; Escherichia coli, KUB No. 5765, AR Bank # 369) | MIC (Enterobacterales; Escherichia coli, KUB No. 5766, AR Bank # 370) | MIC (Enterobacterales; [4]) | MIC (Enterobacterales; [7])
0.12 to 4 µg/mL: MICrange (Enterobacterales; [14])
1 µg/mL: MIC80 (53 CRE and CPE strains; 53 bacterial isolates) | MIC80 (Enterobacterales; 154 strains of Enterobacterales, read-out: MIC80) | MIC (Enterobacterales; [2]) | MIC (Enterobacterales; [10]) | MIC (Enterobacterales; Klebsiella pnemnonine, KUB No. 5758, AR Bank # 362) | MIC (Enterobacterales; Klebsiella pneumoniae, KUB No. 5757, AR Bank # 361) | MIC (Enterobacterales; Klebsiella pneumoniae, KUB No. 5760, AR Bank # 364) | MIC (Enterobacterales; Klebsiella pneumoniae, KUB No. 5772, AR Bank # 376) | MIC50 (Enterobacterales; [16])
2 µg/mL: MIC90 (53 CRE and CPE strains; 53 CRE and CPE strains, read-out: MIC90) | MIC90 (53 CRE and CPE strains; 53 bacterial isolates) | MIC90 (Enterobacterales; [14]) | MIC (Enterobacterales; Enterobacter cloacae, KUB No. 5761, AR Bank # 365) | MIC (Enterobacterales; Enterobacter cloacae, KUB No. 5762, AR Bank # 366) | MIC (Enterobacterales; Klebsiella oxytoca, KUB No. 5776, AR Bank # 380) | MIC90 (Enterobacterales; [15]) | MIC90 (Enterobacterales; [16]) | MIC90 (Enterobacterales; metallo-β-lactamase-producing strains of Enterobacterales)
0.5 µg/mL: MIC50 (53 CRE and CPE strains; 53 bacterial isolates, read-out: MIC50) | MIC50 (Enterobacterales; [14]) | MIC (Enterobacterales; Enterobacter cloacae, Enterobacter cloacae complex, KUB No. 5661, AR Bank # 164) | MIC (Enterobacterales; Enterobacter cloacae, KUB No. 5763, AR Bank # 367) | MIC (Enterobacterales; Escherichia coli, KUB No. 5768, AR Bank # 372) | MIC (Enterobacterales; [5]) | MIC (Enterobacterales; [6]) | MIC (Enterobacterales; [8]) | MIC (Enterobacterales; Escherichia coli, KUB No. 5780, AR Bank # 434) | MIC (Enterobacterales; Escherichia coli, KUB No. 5781, AR Bank # 435) | MIC (Enterobacterales; [9]) | MIC (Enterobacterales; [11]) | MIC (Enterobacterales; Klebsiella pneumoniae, KUB No. 5759, AR Bank # 363) | MIC (Enterobacterales; [13]) | MIC50 (Enterobacterales; [15])
4 µg/mL: MIC90 [1] | MIC (Enterobacterales; Enterobacter cloacae, KUB No. 5660, AR Bank # 163) | MIC (Enterobacterales; [12])
0.12 to 16 µg/mL: MICrange (53 CRE and CPE strains; 53 bacterial isolates)
